The nature of test [1]: Calcification after subcutaneous implantation in rats (Examples 2 and 3), bovine pericardium. Type of test: in vivo, Sprague-Dawley rats. The note with it: retrieved after 60 days of implantation, about 16 hours treatment. How it is done: In a class 100 laminar flow bench, pieces of glutaraldehyde-fixed bovine pericardium tissue (Mitroflow Inc.; Richmond, British Columbia, Canada) porcine cusp tissue (Labcor; Belo Horizonte, Brazil) and porcine wall tissue (Labcor Inc.) were transferred into sterile tubes containing 1,2-octanediol solutions (5% 1,2-octanediol (Aldrich Chemical), 40% ethanol and 55% 10 mM HEPES buffer). The tubes were transferred to a 37° C. incubator and maintained at 37° C. with gentle agitation for about 16 hours. After the treatment, the samples were transferred to solutions comprising 22% ethanol in 10 mM HEPES and stored for 14 days at 4° C. The final tissue to volume ratio for all treatments was approximately 27 ml/g. For N-methyl pyrolidinone (NMP) treatments, pieces of glutaraldehyde-fixed bovine pericardium tissue (Mitroflow Inc.), porcine cusp tissue (Labcor Inc.) and porcine wall tissue (Labcor Inc.) were transferred into sterile tubes containing NMP. The tubes were incubated at room temperature for about 16 hours with occasional manual agitation. […] Seven rats per treatment group were analyzed. […] After retrieval, the samples were analyzed for their calcium and phosphorus contents using a standard ICP methodology. […] Seven rats per treatment group were analyzed. […] After retrieval, the samples were analyzed for their calcium and phosphorus contents by ICP.

Test [2] in a line: Calcification after subcutaneous implantation in rats (Example 2), porcine cusp. Type of test: in vivo, Sprague-Dawley rats. The note with it: retrieved after 60 days of implantation, about 16 hours treatment. As for the experimental part:
(§1) In a class 100 laminar flow bench, pieces of glutaraldehyde-fixed bovine pericardium tissue (Mitroflow Inc.; Richmond, British Columbia, Canada) porcine cusp tissue (Labcor; Belo Horizonte, Brazil) and porcine wall tissue (Labcor Inc.) were transferred into sterile tubes containing 1,2-octanediol solutions (5% 1,2-octanediol (Aldrich Chemical), 40% ethanol and 55% 10 mM HEPES buffer). The tubes were transferred to a 37° C. incubator and maintained at 37° C. with gentle agitation for about 16 hours. After the treatment, the samples were transferred to solutions comprising 22% ethanol in 10 mM HEPES and stored for 14 days at 4° C. The final tissue to volume ratio for all treatments was approximately 27 ml/g. For N-methyl pyrolidinone (NMP) treatments, pieces of glutaraldehyde-fixed bovine pericardium tissue (Mitroflow Inc.), porcine cusp tissue (Labcor Inc.) and porcine wall tissue (Labcor Inc.) were transferred into sterile tubes containing NMP. The tubes were incubated at room temperature for about 16 hours with occasional manual agitation. After the treatment, the tissue samples were transferred to 22% HEPES-buffered ethanol solutions and stored for 14 days at 4° C. […] Seven rats per treatment group were analyzed. […] After retrieval, the samples were analyzed for their calcium and phosphorus contents using a standard ICP methodology.

Test [3] in a line: Calcification after subcutaneous implantation in rats (Example 2), porcine wall. Type of test: in vivo, Sprague-Dawley rats. The note with it: retrieved after 60 days of implantation, about 16 hours treatment. How it is done:
as §1

Test [4] relates to Amphotropic Murine Leukemia Virus (A-MuLV). Briefly: Viral inactivation of spiked porcine valve and pericardium, A-MuLV. Type of test: cell-based. The note with it: 0.2% glutaraldehyde at 47 days; average for porcine valve and pericardium material.
Test [5] has as its system Influenza A Virus (Inf A). Briefly: Viral inactivation of spiked porcine valve and pericardium, Inf A. Type of test: cell-based. The note with it: 0.2% glutaraldehyde at 47 days; average for porcine valve and pericardium material.
Another test relates to Porcine Parvovirus (PPV). The test can be described thus: Viral inactivation of spiked porcine valve and pericardium, PPV. Type of test: cell-based. The note with it: 0.2% glutaraldehyde at 47 days; average for porcine valve and pericardium material.
For the next test, the system named is Pseudorabies Virus (PrV). Type of test: cell-based. The note with it: 0.2% glutaraldehyde at 47 days; average for porcine valve and pericardium material.
In another test the test system is Reovirus Type 3 (REO-3). Briefly: Viral inactivation of spiked porcine valve and pericardium, REO-3. Type of test: cell-based. The note with it: 0.2% glutaraldehyde at 47 days; average for porcine valve and pericardium material.
Test [6] concerns five viruses (A-MuLV, Inf A, PPV, PrV, REO-3). Briefly: Viral inactivation, panel of five viruses (remaining virus). Type of test: cell-based. The note with it: after 47 days of exposure.

Consider `CN1CCCC1=O` [NMP, N-methyl pyrolidinone], for which the “Calcuim (μg/mg tissue)” value was 8.0 μg/mg tissue in test [1], 14.7 μg/mg tissue in test [2] and 111.9 μg/mg tissue in test [3]. Besides, the figures for the “Phosphorus (μg/mg tissue)” value in test [1], in [2] and in test [3] were 3.4 μg/mg tissue, 7.9 μg/mg tissue and 55.2 μg/mg tissue, respectively.

For `O=CCCCC=O` [Glutaraldehyde, glutaraldehyde], the “Viral log reduction, A-MuLV” value in [4] worked out at 4.15 log. Moreover, the “Viral log reduction, Inf A” value in test [5] came to 3.5 log. Also, in the test with Porcine Parvovirus (PPV), the “Viral log reduction, PPV” value is listed as 5.03 log. In addition, the “Viral log reduction, PrV” value in the test on Pseudorabies Virus (PrV) is on record as 5.51 log. Also, the “Viral log reduction, REO-3” value with Reovirus Type 3 (REO-3) was 5.00 log. Also, the “viruses present on porcine valves or pericardium materials” value in [6] is on record as “No viruses were present”.

The values above are taken from patent US20060110370A1, “Treatments for reduction of cytotoxicity and viral contamination of implantable medical devices” (priority 2004, published 2006).
